Here are results for 3 compounds from patent US20080280941A1, “8-Phenoxy-Gamma Carboline Derivatives” (priority 2004, published 2008).

The test system of data set [1] is inflammation induced by the stimulation of the saphenous nerve. In words: Inhibition of neurogenic inflammation (plasmatic extravasation) induced by electrical stimulation of the saphenous nerve. As to conditions: rat, 15 minutes before electrical stimulation of the saphenous nerve, Evans Blue extravasation. The format is in vivo, male Wistar rats. As to the method:
The results of the pharmacological studies are given below. • 1. The inhibitory power of the molecules on inflammation induced by the stimulation of the saphenous nerve has been measured at follows 24 hours after a treatment with guanethidine (20 mg/kg, sc), the male Wistar rats (220-250 g) are anaesthetized with sodic pentobarbital (60 mg/kg, ip). The two back legs are shaved. After a cut in the upper part of the thigh, the saphenous nerve is cleared, cut, placed on a platinum electrode and immersed in a drop of paraffin oil. Only the electrode placed on the right leg is connected to a stimulator. This latter represents the “stimulated” leg by contrast to the “sham” left leg. The product (at a dosage of 5 μg/kg) or the corresponding solvent (NaCl 9 ‰-DMSO) are administrated via the jugular vein, 15 minutes before the electrical stimulation (ES). A plasmatic marker, Evans Blue (20 mg/kg iv) is administered through the penis vein 5 minutes before the ES. The saphenous nerve is stimulated according to the following conditions: 3V; 5 Hz; 1 ms; 5 minutes (Harvard stimulator). At the end of the ES, a blood sample is realized by cardiac puncture and the skin of the edema of each leg (visualized by the extravasation of the Evans Blue) is sampled and weighted later. The animals are killed by anaesthetical overdose. The blood samples are centrifuged (3,000 rotations/minute, during 15 minutes). […] The Evans Blue is measured in the plasma and after extraction of the skin biopsies by a spectrophotometrical method, at 620 nm. […] The vascular contractile response has been measured with saphenous vein rings of rabbits (new Zealand, 2.5 to 3 kg) bound to a sensor, installed in organs baths (EMKA Technologies), containing a physiological Krebs-[…] solution. […] The vasoconstrictive effect of the molecules with increasing concentrations is evaluated with saphenous vein rings contracted in an intermediate manner with 40 mmol/l KCl and treated with 0.5 μmol/l pargyline, an inhibitor of monoamine oxydase. The results are expressed as percent of the maximum effect induced by serotonine at 1 μmol/l. […]

In data set [2] the test system is saphenous vein rings of rabbits. In words: Vascular contractile response of isolated saphenous vein rings. As to conditions: rabbit saphenous vein rings, percent of the maximum effect induced by serotonine at 1 μmol/l. Details: species or system rabbits (new Zealand). As for the experimental part: (§1) 24 hours after a treatment with guanethidine (20 mg/kg, sc), the male Wistar rats (220-250 g) are anaesthetized with sodic pentobarbital (60 mg/kg, ip). The two back legs are shaved. After a cut in the upper part of the thigh, the saphenous nerve is cleared, cut, placed on a platinum electrode and immersed in a drop of paraffin oil. Only the electrode placed on the right leg is connected to a stimulator. This latter represents the “stimulated” leg by contrast to the “sham” left leg. The product (at a dosage of 5 μg/kg) or the corresponding solvent (NaCl 9 ‰-DMSO) are administrated via the jugular vein, 15 minutes before the electrical stimulation (ES). A plasmatic marker, Evans Blue (20 mg/kg iv) is administered through the penis vein 5 minutes before the ES. The saphenous nerve is stimulated according to the following conditions: 3V; 5 Hz; 1 ms; 5 minutes (Harvard stimulator). […] The Evans Blue is measured in the plasma and after extraction of the skin biopsies by a spectrophotometrical method, at 620 nm. […] The vascular contractile response has been measured with saphenous vein rings of rabbits (new Zealand, 2.5 to 3 kg) bound to a sensor, installed in organs baths (EMKA Technologies), containing a physiological Krebs-Henseileit solution. […] The vasoconstrictive effect of the molecules with increasing concentrations is evaluated with saphenous vein rings contracted in an intermediate manner with 40 mmol/l KCl and treated with 0.5 μmol/l pargyline, an inhibitor of monoamine oxydase. The results are expressed as percent of the maximum effect induced by serotonine at 1 μmol/l. […] The binding on the 5HT1B/5HT1D receptors of isolated membranes of bovine nuclear caudal has been measured by measuring the shifting of 5 nmoml/l of [^3H]5-carboxamidotryptamine by increasing concentrations of the molecule in the presence of 100 nmol/l of 8-OH-dipropylaminotetralin (8-OH-DPAT) in order to mask the 5HT1A receptors and in the presence of 100 nM of mesulergine in order to mask the 5HT2 receptors.

The target of data set [3] is 5HT1B/5HT1D receptors of isolated membranes of bovine nuclear caudal. In words: Binding on 5HT1B/5HT1D receptors, shifting of [3H]5-carboxamidotryptamine. Conditions: 100 nmol/l 8-OH-DPAT and 100 nM mesulergine. As for the experimental part: as §1
The target in data set [4] is T1, 5HT1A receptors of isolated membranes of rat brain (Rattus norvegicus, UniProt P19327).
T1 construct: isolated membranes of rat brain; from tissue; host or cells: rat brain membranes
T1 sequence (P19327 1-422): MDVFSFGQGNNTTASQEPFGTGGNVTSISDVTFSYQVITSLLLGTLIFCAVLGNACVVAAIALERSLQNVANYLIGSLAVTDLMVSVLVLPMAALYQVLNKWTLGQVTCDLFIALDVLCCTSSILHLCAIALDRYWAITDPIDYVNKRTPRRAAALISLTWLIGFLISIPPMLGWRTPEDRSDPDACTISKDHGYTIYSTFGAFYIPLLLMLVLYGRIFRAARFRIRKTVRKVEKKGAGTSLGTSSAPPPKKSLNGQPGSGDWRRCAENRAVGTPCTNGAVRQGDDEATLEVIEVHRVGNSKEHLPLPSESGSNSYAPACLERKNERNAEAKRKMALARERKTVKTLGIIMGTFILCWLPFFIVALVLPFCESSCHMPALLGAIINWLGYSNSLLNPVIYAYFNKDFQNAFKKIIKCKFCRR
In words: Binding to 5HT1A receptors, shifting of [3H]8-OH-DPAT. As to conditions: 100 nmol/l mesulergine.

As usually defined, the IC50 is the concentration needed to halve the response being measured. `c1ccc(Oc2ccc3[nH]c4c(c3c2)CNCC4)cc1` [Example 1, 8-Phenoxy-2,3,4,5-tetrahydro-1H-pyrido[4,3-b]indole]: the “Neuro. Inf. Inhib. (%) 5 μg/kg iv” value in data set [1] came out at 65%. For the same compound, the “Contraction. Saph. Vein 10^−6 mol/l (%)” value in data set [2] worked out at 0%. Moreover, the figures for the half-maximal inhibitory concentration (IC50) in data set [3] and in data set [4] were 10 µM and 30 µM, respectively.
Broadly, the melting point is the temperature of the solid-liquid transition. As to `c1ccc(CN2CCc3[nH]c4ccc(Oc5ccccc5)cc4c3C2)cc1` [Example 2, 8-Phenoxy-N-benzyl-2,3,4,5-tetrahydro-1H-pyrido[4,3-b]indole], the melting point was 102.3 °C. In addition, in data set [1], the “Neuro. Inf. Inhib. (%) 5 μg/kg iv” value is listed as 60%. In data set [2], the “Contraction. Saph. Vein 10^−6 mol/l (%)” value amounted to 0%. In data set [3], the half-inhibitory concentration (IC50) was greater than 10 µM. For the same compound, in data set [4], the IC50 was greater than 10 µM.
`Cl.c1ccc(CN2CCc3[nH]c4ccc(Oc5ccccc5)cc4c3C2)cc1` [Example 3, 8-Phenoxy-N-benzyl-2,3,4,5-tetrahydro-5H-pyridinium[4,3-b]indole-hydrochloride]: the “Neuro. Inf. Inhib. (%) 5 μg/kg iv” value in data set [1] amounted to 80%. Besides, the “Contraction. Saph. Vein 10^−6 mol/l (%)” value in data set [2] is reported as 0%. Besides, the half-inhibitory concentration (IC50) in data set [3] and in data set [4] was greater than 5 µM throughout.
